Laboratory results taken from publication PMC11031283 (ACS synthetic biology, 2024).

Molecular target: EncM (Streptomyces maritimus, UniProt Q9KHK2)
Test: LC-MS product formation, low activity
Assay type: biochemical
Details: in vitro purified enzyme; not detected in lysate

CCCCCc1cc(O)c(C/C=C(\C)CCC=C(C)C)c(O)c1C(=O)O [compound 3, cannabigerolic acid]
LC-MS product formation, low activity: several other enzymes had low activity not detected in lysate assays, including EncM
